Experimental data from patent US4062950A, “Amino sugar derivatives” (priority 1973, dated 1977).

Key:
saccharase = target: T1, saccharase (Rattus norvegicus, UniProt P23739); assay: In vivo saccharase inhibition (sucrose overfeeding test) in the fasting rat
T1 construct: from tissue; host or cells: intestine of the living rat (endogenous enzyme)
Protocol: The produce an alimentary hyperglycemia and hyperinsulinaemia, groups of 6 fasting rats are given (a) 2.5 g of sucrose, (b) 2.5 g of maltose or (c) 1 g of boiled starch orally, in aqueous solution or suspension. Six other rats are given the same carbohydrates in the same amount and a glycoside hydrolase inhibitor in the amount indicated. In addition, six other rats are given an appropriate volume of saline. The blood glucose and the serum insulin are then measured at short intervals of time, in the blood from the retro-orbital venous plexus. Blood glucose determinations are carried out in the Auto-Analyser device (Technicon), according to Hoffmann: J. biol.

starch digestion = assay: In vivo starch digestion inhibition (starch feeding test) in the fasting rat
maltase = assay: In vitro maltase test; format: biochemical, pig; settings: Table II
Protocol: One maltase inhibitor unit (MIU) is defined as the amount of inhibitor which inhibits two maltase units to the extent of 50%. One maltase unit (MU) is the amount of enzyme which in one minute, under the test conditions specified below, splits 1 μmol of maltose into 2 μmol of glucose. The μmol of glucose formed are determined quantitatively by means of the glucose oxidase reaction under conditions such that further splitting of maltose by the maltase no longer takes place. To carry out the test, 0.05 ml of solubilized maltase [from the mucous membrane of the small intestine of the pig, according to B. Borgstrom, A, Dahlquist, Acta Chem, Scan. […] The mixture is equilibrated for 10 minutes at 35° C and 0.1 ml of an 0.05 M maltose solution in 0.1 M sodium maleate buffer of pH 6.0, pre-warmed to 35° C, is then added. The mixture is incubated for 20 minutes at 35° C and the maltase reaction is stopped by addition of 1 ml of the glucose oxidase reagent described above, and the incubation is continued for a further 30 minutes at 35° C. Thereafter, 1 ml of 50% strength sulfuric acid is added and a measurement carried out at 545 nm against a corresponding blank.

pancreas-α-amylase = target: T2, pancreas-α-amylase (Sus scrofa, UniProt P00690); assay: In vitro amylase test; format: biochemical
T2 sequence (P00690 16-511): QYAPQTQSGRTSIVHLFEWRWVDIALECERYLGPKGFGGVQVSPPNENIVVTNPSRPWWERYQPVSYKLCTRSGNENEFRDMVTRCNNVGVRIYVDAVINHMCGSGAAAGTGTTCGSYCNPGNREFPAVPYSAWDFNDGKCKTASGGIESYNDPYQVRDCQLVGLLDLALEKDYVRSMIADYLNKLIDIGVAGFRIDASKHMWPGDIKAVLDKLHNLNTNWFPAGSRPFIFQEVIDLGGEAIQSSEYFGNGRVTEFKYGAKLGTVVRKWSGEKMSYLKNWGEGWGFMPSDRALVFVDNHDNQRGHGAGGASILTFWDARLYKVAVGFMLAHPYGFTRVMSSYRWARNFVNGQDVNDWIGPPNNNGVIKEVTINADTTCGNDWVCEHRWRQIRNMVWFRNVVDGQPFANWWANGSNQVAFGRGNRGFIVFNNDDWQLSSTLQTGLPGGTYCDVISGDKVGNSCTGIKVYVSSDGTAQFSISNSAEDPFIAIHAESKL
Protocol: One amylase inhibitor unit (1 AIU) is defined as the amount of inhibitor which inhibits two amylase units to the extent of 50%. One amylase unit (AU) is the amount of enzyme which under the test conditions specified below splits 1 μequivalent of glucoside bonds in the starch per minute. The μequivalents of split bonds are determined colorimetrically as μequivalents of reducing sugars formed, using dinitrosalicylic acid, and are quoted as μequivalents of maltose equivalents, using a maltose calibration curve. To carry out the test, 0.1 ml of amylase solution (20-22 AU/ml) are mixed with 0-10 μg of inhibitor or 0-20 μl of the solution to be tested in 0.4 ml of 0.02 M sodium glycerophosphate buffer/0.001 M CaCl2, pH 6.9, and the mixture is equilibrated for 10-20 minutes in a water bath at 35° C. The mixture is then incubated for 5 minutes at 35° C with 0.5 ml of a 1% strength starch solution which has been pre-warmed to 35° C (soluble starch No. 1,252 from Merck, Darmstadt), and thereafter 1 ml of dinitrosalicyclic acid reagent (according to P. bernfeld in Colowick-Kaplan, Meth. Enzymol., Volume l, page 149) is added. To develop the color, the batch is heated for 5 minutes on a boiling water bath and then cooled, and 10 ml of distilled water are added. The extinction at 540 nm is measured against a correspondingly made-up blank without amylase. […] The percentage inhibition is plotted as a function of the quotient [formula]

T1 sequence (P23739 1014-1841 limits assumed): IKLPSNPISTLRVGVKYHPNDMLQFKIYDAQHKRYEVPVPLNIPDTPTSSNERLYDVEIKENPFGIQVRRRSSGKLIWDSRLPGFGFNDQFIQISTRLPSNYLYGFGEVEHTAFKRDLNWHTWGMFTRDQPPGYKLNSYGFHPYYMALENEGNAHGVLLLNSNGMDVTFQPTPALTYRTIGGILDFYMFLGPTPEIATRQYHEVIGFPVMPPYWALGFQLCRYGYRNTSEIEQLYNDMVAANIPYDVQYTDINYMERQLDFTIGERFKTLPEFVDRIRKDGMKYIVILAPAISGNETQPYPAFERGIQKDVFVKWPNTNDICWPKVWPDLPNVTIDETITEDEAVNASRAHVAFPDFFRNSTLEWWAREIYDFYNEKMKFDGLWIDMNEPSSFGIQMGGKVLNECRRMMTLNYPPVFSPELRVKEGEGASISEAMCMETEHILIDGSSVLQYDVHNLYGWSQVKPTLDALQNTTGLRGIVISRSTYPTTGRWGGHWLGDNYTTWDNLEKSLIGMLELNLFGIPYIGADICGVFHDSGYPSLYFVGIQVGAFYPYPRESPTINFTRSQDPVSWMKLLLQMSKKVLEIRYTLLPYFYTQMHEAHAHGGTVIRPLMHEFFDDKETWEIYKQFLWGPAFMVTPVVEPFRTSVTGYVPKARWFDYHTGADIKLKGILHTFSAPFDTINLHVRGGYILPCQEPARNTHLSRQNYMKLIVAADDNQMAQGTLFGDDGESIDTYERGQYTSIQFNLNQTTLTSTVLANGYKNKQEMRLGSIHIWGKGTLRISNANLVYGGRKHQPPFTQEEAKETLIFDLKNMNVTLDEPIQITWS
T1 sequence (P23739 2-1013 partner limits assumed): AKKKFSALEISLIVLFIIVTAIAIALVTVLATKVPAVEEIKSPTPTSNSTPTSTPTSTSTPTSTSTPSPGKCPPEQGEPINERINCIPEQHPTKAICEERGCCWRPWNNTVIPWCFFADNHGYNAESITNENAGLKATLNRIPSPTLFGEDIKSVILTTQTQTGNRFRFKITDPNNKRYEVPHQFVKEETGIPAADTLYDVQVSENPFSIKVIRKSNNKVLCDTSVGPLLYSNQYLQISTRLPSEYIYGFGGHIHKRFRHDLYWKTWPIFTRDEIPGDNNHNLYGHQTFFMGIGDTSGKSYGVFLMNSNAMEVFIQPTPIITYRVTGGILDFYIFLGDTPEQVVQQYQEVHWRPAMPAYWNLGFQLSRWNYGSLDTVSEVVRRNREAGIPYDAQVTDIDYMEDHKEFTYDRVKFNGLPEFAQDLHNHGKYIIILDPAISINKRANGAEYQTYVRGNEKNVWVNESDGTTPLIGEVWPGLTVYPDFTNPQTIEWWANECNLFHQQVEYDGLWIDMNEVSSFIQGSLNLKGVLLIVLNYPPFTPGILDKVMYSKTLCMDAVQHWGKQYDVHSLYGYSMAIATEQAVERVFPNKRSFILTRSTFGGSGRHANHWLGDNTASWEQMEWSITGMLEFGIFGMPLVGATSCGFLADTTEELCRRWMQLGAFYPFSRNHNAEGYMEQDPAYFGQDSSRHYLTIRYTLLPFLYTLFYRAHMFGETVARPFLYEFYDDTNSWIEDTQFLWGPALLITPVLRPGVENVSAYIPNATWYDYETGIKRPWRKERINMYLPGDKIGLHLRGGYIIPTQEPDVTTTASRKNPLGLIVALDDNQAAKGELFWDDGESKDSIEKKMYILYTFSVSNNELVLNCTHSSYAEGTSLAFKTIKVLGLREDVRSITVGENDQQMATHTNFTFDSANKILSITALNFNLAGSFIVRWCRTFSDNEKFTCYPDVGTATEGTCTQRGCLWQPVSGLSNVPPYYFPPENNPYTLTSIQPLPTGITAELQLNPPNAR

Question: With C[C@H]1O[C@H](O[C@H]2[C@H](O)[C@@H](O)[C@@H](O[C@H]3[C@H](O)[C@@H](O)C(O)O[C@@H]3CO)O[C@@H]2CO)[C@H](O)[C@@H](O)[C@@H]1N[C@H]1C=C(CO)[C@@H](O[C@H]2O[C@H](CO)[C@@H](O)[C@H](O)[C@H]2O)[C@H](O)[C@H]1O (stereo partly drawn) [Formula V, O-{4,6-bisdesoxy-4-[1 S-(1,4,6/5)-4,5,6-trihydroxy-3-hydroxymethyl-4-O-α-D-glucopyranosyl-(1→4)-cyclohex-2-en-1-ylamino]-α-D-glycopyranosyl}-(1→4)-O-α-D-glucopyranosyl-(1→4)-D-glucopyranose] as the compound, how does the “Blood Glucose (Mean ± SD)” value (saccharase; 2.5 g sucrose + 25 SIU oral, 15 Min.) read?
Answer: 88 ± 11.4 mg%

Question: And the “Blood Glucose (Mean ± SD)” value (saccharase; 2.5 g sucrose + 25 SIU oral, 30 Min.)?
Answer: 101 ± 12.0 mg%

Question: And the “Blood Glucose (Mean ± SD)” value (saccharase; 2.5 g sucrose + 25 SIU oral, 45 Min.)?
Answer: 104 ± 7.4 mg%

Question: And the “Blood Glucose (Mean ± SD)” value (saccharase; 2.5 g sucrose + 50 SIU oral, 15 Min.)?
Answer: 91 ± 9.4 mg%

Question: What about the “Blood Glucose (Mean ± SD)” value (saccharase; 2.5 g sucrose + 50 SIU oral, 30 Min.) of the same compound?
Answer: 106 ± 7.0 mg%

Question: What about the “Blood Glucose (Mean ± SD)” value (saccharase; 2.5 g sucrose + 50 SIU oral, 45 Min.) of the same compound?
Answer: 94 ± 9.0 mg%

Question: And the “Blood Glucose (Mean ± SD)” value (saccharase; 2.5 g sucrose + 100 SIU oral, 15 Min.)?
Answer: 81 ± 7.2 mg%

Question: What about the “Blood Glucose (Mean ± SD)” value (saccharase; 2.5 g sucrose + 100 SIU oral, 30 Min.) of the same compound?
Answer: 90 ± 8.0 mg%

Question: And the “Blood Glucose (Mean ± SD)” value (saccharase; 2.5 g sucrose + 100 SIU oral, 45 Min.)?
Answer: 97 ± 1.6 mg%

Question: What about the ED50 (saccharase; read-out: Saccharase Inhibition (ED50 mg/kg), ED50, sucrose, fasting rat, Table IV, read-out: Saccharase Inhibition In Vitro (ED50 mg/kg)) of the same compound?
Answer: 2.65 mg/kg

Question: And the “Blood Glucose (Mean ± SD)” value (starch digestion; 1 g starch + 750 AIU oral, 5 Min.)?
Answer: 86 ± 8.5 mg%

Question: What about the “Blood Glucose (Mean ± SD)” value (starch digestion; 1 g starch + 750 AIU oral, 10 Min.) of the same compound?
Answer: 107 ± 5.0 mg%

Question: And the “Blood Glucose (Mean ± SD)” value (starch digestion; 1 g starch + 750 AIU oral, 15 Min.)?
Answer: 117 ± 8.7 mg%

Question: And the “Blood Glucose (Mean ± SD)” value (starch digestion; 1 g starch + 750 AIU oral, 20 Min.)?
Answer: 121 ± 12 mg%

Question: What about the “Blood Glucose (Mean ± SD)” value (starch digestion; 1 g starch + 750 AIU oral, 30 Min.) of the same compound?
Answer: 126 ± 11 mg%

Question: What about the “Blood Glucose (Mean ± SD)” value (starch digestion; 1 g starch + 750 AIU oral, 45 Min.) of the same compound?
Answer: 114 ± 3.6 mg%

Question: What about the “Blood Glucose (Mean ± SD)” value (starch digestion; 1 g starch + 1,500 AIU oral, 5 Min.) of the same compound?
Answer: 77 ± 14 mg%

Question: And the “Blood Glucose (Mean ± SD)” value (starch digestion; 1 g starch + 1,500 AIU oral, 10 Min.)?
Answer: 92 ± 9.6 mg%

Question: And the “Blood Glucose (Mean ± SD)” value (starch digestion; 1 g starch + 1,500 AIU oral, 15 Min.)?
Answer: 94 ± 9.5 mg%

Question: What about the “Blood Glucose (Mean ± SD)” value (starch digestion; 1 g starch + 1,500 AIU oral, 20 Min.) of the same compound?
Answer: 113 ± 9.7 mg%

Question: What about the “Blood Glucose (Mean ± SD)” value (starch digestion; 1 g starch + 1,500 AIU oral, 30 Min.) of the same compound?
Answer: 112 ± 8.8 mg%

Question: What about the “Blood Glucose (Mean ± SD)” value (starch digestion; 1 g starch + 1,500 AIU oral, 45 Min.) of the same compound?
Answer: 111 ± 4.2 mg%

Question: And the “Blood Glucose (Mean ± SD)” value (starch digestion; 1 g starch + 3,000 AIU oral, 5 Min.)?
Answer: 65 ± 5.6 mg%

Question: What about the “Blood Glucose (Mean ± SD)” value (starch digestion; 1 g starch + 3,000 AIU oral, 10 Min.) of the same compound?
Answer: 101 ± 3.3 mg%

Question: What about the “Blood Glucose (Mean ± SD)” value (starch digestion; 1 g starch + 3,000 AIU oral, 15 Min.) of the same compound?
Answer: 82 ± 11 mg%

Question: And the “Blood Glucose (Mean ± SD)” value (starch digestion; 1 g starch + 3,000 AIU oral, 20 Min.)?
Answer: 112 ± 4.5 mg%

Question: And the “Blood Glucose (Mean ± SD)” value (starch digestion; 1 g starch + 3,000 AIU oral, 30 Min.)?
Answer: 109 ± 6.4 mg%

Question: What about the “Blood Glucose (Mean ± SD)” value (starch digestion; 1 g starch + 3,000 AIU oral, 45 Min.) of the same compound?
Answer: 104 ± 2.5 mg%

Question: What about the ED50 (starch digestion; ED50, starch, fasting rat, Table VI) of the same compound?
Answer: 1.61 mg/kg

Question: What about the “in vivo inhibition of starch digestion, in words” value (starch digestion; compared with expectation from in vitro amylase inhibition) of the same compound?
Answer: much higher than would be expected

Question: And the “Maltase Inhibition” value (maltase)?
Answer: 5,000 MIU/g

Question: What about the “α-Amylase Inhibition” value (pancreas-α-amylase; in vitro, Table II) of the same compound?
Answer: 1,400,000 AIU/g

Question: And the “α-Amylase Inhibition In Vitro” value (pancreas-α-amylase; in vitro, Table VI)?
Answer: 1,400 AIU/mg

Question: What about the “amylase inhibiting activity of isolated product” value (pancreas-α-amylase; isolated product of the Examples) of the same compound?
Answer: 1.4 × 10^6 AIU/g
